Here are results for 1 compound from PMC10964662, “Domperidone inhibits cell proliferation via targeting MEK and CDK4 in esophageal squamous cell carcinoma” (Cancer Cell International, 2024).

For assay [1], the target named is CDK4 (Homo sapiens, UniProt P11802). Description: pull-down with domperidone-Sepharose 4B beads and DARTS in KYSE150/KYSE450 lysates. Type of assay: cell-based.
The target of assay [2] is T1, MEK2 (Homo sapiens, UniProt P36507).
T1 construct: gene MAP2K2; active MEK2 human recombinant protein
Kind of assay: SPR (Biacore T200, CM5 chip); also pull-down, DARTS and in vitro kinase assay. Type of assay: binding. In general terms: In SPR one partner is held on a chip, and binding of the other changes the refractive index at the surface.

In assay [3] the target is T2, MEK1 (Homo sapiens, UniProt Q02750).
T2 construct: gene MAP2K1; active MEK1 human recombinant protein
Described as above. Type of assay: binding.

T2 sequence (Q02750 whole entry): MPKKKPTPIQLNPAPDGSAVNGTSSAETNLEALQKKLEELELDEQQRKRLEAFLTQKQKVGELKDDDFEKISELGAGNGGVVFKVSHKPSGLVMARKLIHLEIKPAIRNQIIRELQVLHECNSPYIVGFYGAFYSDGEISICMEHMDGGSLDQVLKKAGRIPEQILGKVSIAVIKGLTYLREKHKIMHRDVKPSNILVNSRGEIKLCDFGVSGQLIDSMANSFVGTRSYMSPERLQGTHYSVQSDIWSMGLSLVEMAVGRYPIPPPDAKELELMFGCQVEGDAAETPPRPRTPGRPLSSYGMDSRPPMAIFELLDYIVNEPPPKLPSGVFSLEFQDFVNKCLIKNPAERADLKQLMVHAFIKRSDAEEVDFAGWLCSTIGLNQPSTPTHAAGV
CDK4, sequence (P11802 2-303): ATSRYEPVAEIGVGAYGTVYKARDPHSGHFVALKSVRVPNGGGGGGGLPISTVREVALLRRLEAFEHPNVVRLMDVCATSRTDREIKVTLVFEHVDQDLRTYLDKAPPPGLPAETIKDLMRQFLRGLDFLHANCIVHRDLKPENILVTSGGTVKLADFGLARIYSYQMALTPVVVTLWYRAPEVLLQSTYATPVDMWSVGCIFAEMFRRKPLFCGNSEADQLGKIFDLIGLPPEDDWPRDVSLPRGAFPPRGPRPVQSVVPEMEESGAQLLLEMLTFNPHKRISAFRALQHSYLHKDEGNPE
T1 sequence (P36507 whole entry): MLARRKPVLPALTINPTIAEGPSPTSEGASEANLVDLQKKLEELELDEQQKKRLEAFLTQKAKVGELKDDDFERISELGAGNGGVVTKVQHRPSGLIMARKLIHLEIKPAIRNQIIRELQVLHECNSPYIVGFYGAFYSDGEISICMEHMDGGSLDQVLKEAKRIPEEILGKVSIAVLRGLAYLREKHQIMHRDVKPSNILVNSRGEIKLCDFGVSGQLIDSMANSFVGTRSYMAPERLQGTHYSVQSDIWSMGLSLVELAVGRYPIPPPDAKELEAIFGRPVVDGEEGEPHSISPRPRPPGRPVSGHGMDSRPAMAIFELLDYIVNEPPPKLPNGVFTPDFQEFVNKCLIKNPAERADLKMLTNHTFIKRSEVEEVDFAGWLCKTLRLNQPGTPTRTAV

As usually defined, the Kd is the constant that tells how readily two partners part at equilibrium. A low value points to a tighter complex. Turning to `O=c1[nH]c2ccccc2n1CCCN1CCC(n2c(=O)[nH]c3cc(Cl)ccc32)CC1` [compound 9, Domperidone], in assay [1], the “pull-down with domperidone-Sepharose 4B beads and DARTS in KYSE150/KYSE450 lysat” value is “DARTS assay also validated that domperidone could directly interact with MEK1, MEK2 and CDK4 ex vivo”. Further, the Kd in assay [2] was 6.66 µM; in assay [3], 6.2 µM.
